Data on 66 compounds can be found in PubChem BioAssay AID2252 (Southern Research Specialized Biocontainment Screening …, 2010).

Where only a bound is given, the exact number is not on record here.

The test system of the assay is THP-1 viability, CellTiter-Glo luminescence, 72 h. Put plainly: PubChem AID 2252.
Turning to `O=C(CCN1CCN(c2ccccc2)CC1)N/N=C/c1ccc([N+](=O)[O-])o1`, the 50% effective concentration (EC50) is 43.9 µM.

In the case of `COc1cc([N+](=O)[O-])cc(/C=N/NC(=O)c2cccnc2)c1O`, the EC50 was 29.7 µM.

Turning to `Cc1nc2ccccn2c1C(=O)N/N=C/c1ccc([N+](=O)[O-])o1`, the half-maximal effective concentration (EC50) is 13.9 µM.

For the compound `CC(=O)Oc1ccccc1C(=O)Nc1ncc([N+](=O)[O-])s1`, the concentration for a half-maximal effect (EC50) is 20.2 µM.

Take `Cc1ccccc1C(=O)Nc1cccc(C(=O)N/N=C/c2cc(Cl)cc([N+](=O)[O-])c2O)c1`: the EC50 is 12.4 µM.

Turning to `CCCCOc1ccc(CN=C(N)N)cc1Cl`, the EC50 was 10.1 µM.

Regarding `C#CCOCCOCCOCCNc1nc(N2CCN(C(=O)[C@H]([C@@H](C)CC)n3cc([C@@H](N)Cc4ccc(O)cc4)nn3)CC2)nc(N2CCN(C(=O)[C@H](Cc3cc4ccccc4[nH]3)n3cc([C@@H](N)CC(C)C)nn3)CC2)n1`, the EC50 is less than 0.1 µM.

In the case of `Clc1ccc2c(c1)c1cc(Cl)ccc1n2CN1CCOCC1`, the concentration giving a half-maximal response (EC50) was 27.2 µM.

For `OC1(c2ccc(Cl)cc2)CCN(Cc2c[nH]c3ccccc23)CC1`, the EC50 was 9.75 µM.

For the compound `Cc1[nH]nc2c1C(c1ccc(-c3ccccc3C#N)o1)C(C#N)=C(N)O2` (stereo unspecified), the EC50 was 30.6 µM.

Take `Cc1nc(N=Nc2ccc(O)cc2)n[nH]1`: the EC50 was 28.2 µM.

`Oc1c(Br)cc(Br)cc1Oc1ccc(Br)cc1Br`: the concentration giving a half-maximal response (EC50) was 26.9 µM.

In the case of `O=C1c2ccccc2C2=Nc3ccccc3SC(c3ccccc3F)C12` (stereo unspecified), the EC50 was 13.8 µM.

For `O=C(N/N=C/c1cc(Br)ccc1O)c1ccncc1`, the EC50 is 5.06 µM.

As to `Cc1cc2oc(=O)cc(CN3CCN(C/C=C/c4ccccc4)CC3)c2cc1O`, the EC50 is 18.6 µM.

For the compound `CC[n+]1c(/C=C/C=C/c2ccc(N(C)C)cc2)sc2ccccc21`, the EC50 was 1.43 µM.

Take `Cc1cc(N2CCC(C)CC2)nc2cccc(O)c12`: the EC50 was 26.4 µM.

For the compound `c1ccc(CN2CCC(Nc3nc(-c4cccs4)nc4ccccc34)CC2)cc1`, the 50% effective concentration (EC50) is 8.03 µM.

`C#CCOCCOCCOCCNc1nc(N2CCN(C(=O)CCCCCCCCCCNC(=O)[C@H]([C@@H](C)CC)n3cc(CCCCN=C(N)N)nn3)CC2)nc(N2CCN(C(=O)CCCCCCCCCCNC(=O)[C@H](CCCCN)n3cc(C)nn3)CC2)n1`: the EC50 is 3.57 µM.

Turning to `COc1cc(/C=C/[N+](=O)[O-])ccc1O`, the half-maximal effective concentration (EC50) was 12.1 µM.

Turning to `CCCCCCCCCCOC(=O)Cn1c(COc2ccc(Cl)cc2)[n+](C)c2ccccc21`, the EC50 is 1.92 µM.

Turning to `O=C(N/N=C\c1ccc(Cl)s1)c1cccs1`, the EC50 was 32.7 µM.

For `O=C(c1ccccc1)c1c2c(cc3sc4ccccc4[n+]13)-c1cccc3cccc-2c13`, the EC50 is 1.36 µM.

Turning to `CO[C@H]1C=CO[C@@]2(C)Oc3c(C)c(O)c4c(O)c(c5c(c4c3C2=O)NC2(CCN(CC(C)C)CC2)N=5)=NC(=O)C(C)=CC=C[C@H](C)[C@H](O)[C@@H](C)[C@@H](O)[C@@H](C)[C@H](OC(C)=O)[C@@H]1C`, the EC50 was 26 µM.

For the compound `Cc1ccc(C(C)C)c(OCCNC(=O)c2ccccc2O)c1`, the EC50 is 32.5 µM.

`Cc1ccc(C(C[N+](=O)[O-])Sc2ccc(N)cc2)cc1` (stereo unspecified): the half-maximal effective concentration (EC50) is 21.8 µM.

As to `O=C(NCCCN1CCN(c2ccc(F)cc2)CC1)Nc1ccc([N+](=O)[O-])cc1`, the 50% effective concentration (EC50) was 45.1 µM.

In the case of `Cc1ccc(-c2cc(N)nc(-c3ccccc3)c2)cc1`, the EC50 is 28.6 µM.

As to `Cc1ccc(C(=O)Sc2cccccc2=O)cc1`, the concentration giving a half-maximal response (EC50) was 2.27 µM.

Turning to `Cc1cc(C)c2nc(C)cc(N/N=C/c3ccc(O)cc3)c2c1`, the EC50 is 1.91 µM.

On to `CCCCCCCCCCCCCCCC[N+](C)(C)C`, for which the 50% effective concentration (EC50) was 1.43 µM.

Regarding `O=C(NC1CCCCC1)c1ccc([N+](=O)[O-])o1`, the concentration for a half-maximal effect (EC50) is 9.5 µM.

Turning to `CN(C)CC/C=C1/c2cc(F)ccc2Sc2ccc(Cl)cc21`, the EC50 is 20.5 µM.

Turning to `COc1ccc(CNCCc2c[nH]c3ccccc23)c(OC)c1C`, the EC50 is 8.57 µM.

`CCCCCCCCCCCCCCCC[N+](C)(C)CC`: the EC50 is 0.48 µM.

Regarding `c1ccc2cc(CSCc3nc4ccccc4[nH]3)ccc2c1`, the EC50 is 48.5 µM.

Turning to `C#CCOCCOCCOCCNc1nc(N2CCN(C(=O)CCCCCCCCCCNC(=O)[C@H]([C@@H](C)CC)n3cc(CCCCN=C(N)N)nn3)CC2)nc(N2CCN(C(=O)CCCCCCCCCCNC(=O)[C@@H]([C@H](C)O)n3cc(C)nn3)CC2)n1`, the EC50 was 2.98 µM.

Turning to `Cc1cccc(Nc2cc(C)c3c(O)cccc3n2)c1C`, the concentration for a half-maximal effect (EC50) is 5.35 µM.

For the compound `CC(=O)c1cc(O)c2ccccc2c1O`, the concentration giving a half-maximal response (EC50) is 41.2 µM.

As for `Brc1ccc2c(c1)C(OC1CN3CCC1CC3)c1ccccc1CS2` (stereo unspecified), the EC50 is 8.31 µM.

As for `CCCCCCCCCCC[N+](C)(C)CC/C=C1/c2ccccc2Sc2ccc(Cl)cc21`, the EC50 was 2.58 µM.

With `NC1=NC[C@@H](Cc2ccc(O)cc2)N1CCCCC1CCCCC1`, the EC50 was 6.98 µM.

In the case of `CC(=O)NC(=S)NNC(=O)c1ccc(Br)cc1`, the concentration for a half-maximal effect (EC50) was 27.6 µM.

Regarding `CCc1ccc2c(c1)Sc1ccccc1CC2N1CCN(C)CC1` (stereo unspecified), the EC50 was 11.8 µM.

On to `COc1ccc(/C=N/NC(=O)c2cc3c(OC)ccc(OC)c3[nH]2)cc1O`, for which the 50% effective concentration (EC50) is 2.53 µM.

With `Cc1ccc(S(=O)(=O)NC(C)(C)CSc2nnc(N)s2)cc1`, the concentration for a half-maximal effect (EC50) was less than 0.1 µM.

Take `CN1CCN(CC(=O)N2CCn3c4c(c5cc(C6CCCCC6)ccc53)CCCC42)CC1` (stereo unspecified): the half-maximal effective concentration (EC50) was 6.66 µM.

As for `CCCCCSc1cc(OC)c(CCNC)cc1OC`, the concentration giving a half-maximal response (EC50) was 13.9 µM.

For `CN(C)CCCN(C(=O)CCc1ccccc1)c1nc2ccc(Br)cc2s1`, the EC50 is 13.4 µM.

Turning to `O=C(Nc1ccc(Cl)cc1)N1CCOC12CCC1(CC2)OCCO1`, the EC50 is less than 0.1 µM.

In the case of `c1ccc(CNc2nc(-c3ccccn3)nc3ccccc23)cc1`, the EC50 was 1.72 µM.

With `CN(C)CCNC(=O)/C(=C/c1ccc(-c2ccc(Cl)cc2)o1)NC(=O)c1ccccc1`, the EC50 is 11.3 µM.

As to `c1ccc(Nc2nc(NCc3ccco3)c3ccccc3n2)cc1`, the concentration giving a half-maximal response (EC50) was 4.95 µM.

Turning to `CCOc1ccc(-c2nc(N)ncc2-c2ccccc2)c(O)c1`, the 50% effective concentration (EC50) was 46.8 µM.

`Cn1c(CCN2CCN(c3ccccn3)CC2)nc2cc(NC(=O)COc3ccccc3)ccc21`: the concentration for a half-maximal effect (EC50) is 22.1 µM.

Regarding `Cc1ccc(N=Cc2cc(Br)cc(Cl)c2O)cc1`, the EC50 is 49.5 µM.

In the case of `CCOc1ccc(Nc2c3ccccc3nc3ccccc23)cc1`, the EC50 was 2.49 µM.

`COc1cc(CNC2CCCC2)cc(Cl)c1OCc1ccccc1Cl`: the EC50 is 14.4 µM.

With `COc1ccc(C(=O)NC(=S)NNC(=O)c2cnccn2)cc1`, the EC50 is 2.98 µM.

With `COc1cc(Br)cc(C=Nc2cccc(C(F)(F)F)c2)c1O`, the EC50 was 50 µM.

In the case of `Brc1ccc2c(c1)CN1CCCC1=N2`, the concentration giving a half-maximal response (EC50) is 28.6 µM.

Turning to `O=[N+]([O-])c1ccc(O)c(/C=N/Nc2ccccn2)c1`, the 50% effective concentration (EC50) is 0.42 µM.

Consider `O=C(CNC(=O)c1cccc(F)c1)N/N=C/c1ccc([N+](=O)[O-])s1`, for which the EC50 was 25.6 µM.

Take `c1ccc(Nc2ccnc(Nc3ccccc3)n2)cc1`: the EC50 was 41.7 µM.

`C/C(=N\Nc1ccc2nncn2n1)c1ccccn1`: the EC50 was 6.13 µM.

As for `C=CCNc1ncnc2c1[nH]c1ccc(C)cc12`, the EC50 was 29.5 µM.
